We go through five compounds from patent US12545735B2, “Anti-met antibodies, bispecific antigen binding molecules that bind met, and methods of use thereof” (REGENERON PHARMACEUTICALS, INC., priority 2016, dated 2026).

What all share (format): cell-based, human
Experiment [1] deals with MET pathway in NCI-H596 cells. The experiment in a line: Immunoblot of MET and ERK phosphorylation, time course. The following applies: HGF 50 ng/ml. How it is done:
250,000 NCI-H596 cells were seeded in a 12 well plate and cultured in RPMI Media supplemented with 10% FBS. […] The cells were subsequently incubated in 5% CO2 at 37° C. After 0, 2, 6 or 18 hours, cell lysates were prepared, protein content was normalized and immunoblot analysis was performed. MET phosphorylation and ERK phosphorylation were quantified with the ImageJ image processing program (T. Collins, BioTechniques 43: S25-S30, 2007). Phosphorylation levels were normalized to the Tubulin loading control and are expressed as fold change relative to control treatment.

Experiment [2] deals with MET (c-Met) in HEK293/SRE-Luc cells. The experiment in a line: SRE-luciferase reporter bioassay, blocking of HGF-mediated MET activation. The following applies: antibodies plus HGF ligand; result in words. The source says:
(§1) The ability of anti-MET antibodies to block hepatocyte growth factor (HGF)-mediated MET activation was examined in a luciferase-based reporter assay. The growth factor HGF binds to the extracellular domain of its receptor c-Met (MET), triggering rapid homodimerization and activating several downstream signaling cascades. The anti-MET antibodies tested in this example were bivalent monospecific binders of MET, or anti-MET “bispecifics”, in which each arm of the bispecific antibody bound to a different and distinct epitope on MET. […]
(§2) Next, 2.0×10^5 HEK293/SRE-Luc cells were seeded in luciferase assay media in 96 well plates and incubated overnight at 37° C. in 5% CO2. […] Separately, the ability of the antibodies to activate c-Met in the absence of ligand was also assessed.
(§3) Luciferase activity was detected using the ONE-Glo™ Luciferase Assay System (Promega, Madison, Wis.), and emitted light was measured on a Victor or Envision luminometer (Perkin Elmer, Shelton, Conn.) and expressed as relative light units (RLUs). EC50/IC50 values were determined from a four-parameter logistic equation over a 12-point response curve using […] […]
Background: A reporter such as luciferase makes a cellular process visible.

Experiment [3] has the same test system. The experiment in a line: SRE-luciferase reporter bioassay, ligand (HGF)-independent MET activation. As to conditions: antibody alone at various concentrations; result in words.
Source text: as §1, §2, §3

The subject of experiment [4] is EBC-1 cells. Put plainly: 3-day in vitro cytotoxicity assay (nuclear counts). As to conditions: 3-day treatment. How it is done:
(§4) To determine the relative cell-killing potency of anti-MET antibody drug conjugates (ADCs) described herein, cell-killing assays were run on multiple cells lines expressing varying levels of endogenous MET.
(§5) To measure in vitro cytotoxicity of anti-MET ADCs, nuclear counts after a 3 or 6-day treatment with the ADCs was assessed. […] For cell viability curves, serially diluted ADCs, unconjugated antibodies, or free payloads were added to the cells at final concentrations ranging from 100 nM to 0.01 nM (based on toxin concentration) and incubated for 3 or 6 days at 37° C. in 5% CO2. Cells were subsequently treated with 3 ug/ml Hoechst 33342 nuclear stain (Invitrogen, #H3570) while being fixed with 4% formaldehyde. Images were acquired on the ImageXpress micro XL (Molecular Devices, Sunnyvale, Calif.) and nuclear counts were determined via MetaXpress image analysis software (Molecular Devices, Sunnyvale, Calif.). Background nuclear counts from cells treated with […] digitonin were subtracted from all wells and viability was expressed as a percentage of the untreated controls. IC50 values were determined from a four-parameter logistic equation over a 10-point response curve (GraphPad Prism). The untreated condition for each dose-response curve is also included in the analysis and is represented as the lowest dose.

A further experiment has as its system MKN-45 cells. The experiment in a line: 3-day in vitro cytotoxicity assay (nuclear counts). The following applies: 3-day treatment. Here is the method: as §4, §5
The test system of another experiment is NCI-H1993 cells. The experiment in a line: 3-day in vitro cytotoxicity assay (nuclear counts). As to conditions: 3-day treatment. How it is done: as §4, §5
The next experiment concerns SNU-5 cells. The experiment in a line: 3-day in vitro cytotoxicity assay (nuclear counts). As to conditions: 3-day treatment. How it is done: as §4, §5
The test system of experiment [5] is A549 cells. Put plainly: 6-day in vitro cytotoxicity assay (nuclear counts). As to conditions: 6-day treatment. How it is done:
as §4, §5

Experiment [6] concerns EBC-1 cells. Put plainly: 6-day in vitro cytotoxicity assay (nuclear counts). The following applies: 6-day treatment. How it is done: as §4, §5
For experiment [7], the system named is Hs746T cells. Put plainly: 6-day in vitro cytotoxicity assay (nuclear counts). As to conditions: 6-day treatment. Here is the method: as §4, §5
For experiment [8], the system named is T47D cells. The experiment in a line: 6-day in vitro cytotoxicity assay (nuclear counts). The following applies: 6-day treatment. Here is the method: as §4, §5
The subject of experiment [9] is A549 cells. Put plainly: 3-day in vitro cytotoxicity assay (nuclear counts). As to conditions: 3-day treatment. Here is the method:
as §4, §5

A further experiment has as its system HEK293 cells. The experiment in a line: 3-day in vitro cytotoxicity assay (nuclear counts). As to conditions: 3-day treatment. How it is done: as §4, §5
The subject of experiment [10] is Hs746T cells. Put plainly: 3-day in vitro cytotoxicity assay (nuclear counts). As to conditions: 3-day treatment. How it is done:
as §4, §5

The next experiment relates to J.RT3 cells. Put plainly: 3-day in vitro cytotoxicity assay (nuclear counts). The following applies: 3-day treatment. Here is the method:
as §4, §5

In a further experiment the test system is MDA-MB-231 cells. The experiment in a line: 3-day in vitro cytotoxicity assay (nuclear counts). The following applies: 3-day treatment. Here is the method:
as §4, §5

Experiment [11] relates to T47D cells. The experiment in a line: 3-day in vitro cytotoxicity assay (nuclear counts). As to conditions: 3-day treatment. How it is done: as §4, §5
Another experiment has as its system U87MG cells. The experiment in a line: 3-day in vitro cytotoxicity assay (nuclear counts). As to conditions: 3-day treatment. Here is the method: as §4, §5

As for “HGF: hepatocyte growth factor, the MET ligand / MET-agonist [reference compound]”, the “time of peak activation of MET and ERK” value in experiment [1] amounted to 2 h.

Consider “monovalent anti-MET antibody: monovalent MET antibody generated using the heavy and light chain variable sequences of MetMab (U.S. Pat. No. 7,892,550 B2) [reference compound]”, for which the “blocking of HGF-dependent MET activation (SRE-luciferase, FIG. 3B, FIG. 4B)” value in [2] is “showed greater HGF blocking”. In [3], the “MET agonist activity in the absence of HGF ligand (SRE-luciferase, FIG. 3A, FIG. 4A)” value is on record as “neither the monovalent nor the MET×MET bispecific antibody showed MET agonist activity”.

Take `COc1cc2cc(c1Cl)N(C)C(=O)CC(OC(=O)C(C)N(C)C(=O)CCSSC)C1(C)OC1C(C)C1CC(O)(NC(=O)O1)C(OC)C=CC=C(C)C2` (centres unmarked) [DM1 (MeS-DM1)]: the 50% inhibitory concentration (IC50) was found to be 2.22 nM with EBC-1 cells [4]; 2.73 nM in the experiment on MKN-45 cells; 2.86 nM with NCI-H1993 cells; 1.22 nM in the experiment with SNU-5 cells; 0.49 nM with A549 cells [5]; 0.12 nM in the experiment with EBC-1 cells [6]. Also, the results for the IC50 with Hs746T cells [7] and with T47D cells [8] were 1.39 nM and 0.24 nM, respectively. The “Max % Kill” value in the experiment on EBC-1 cells [4] is 90%; in the experiment with MKN-45 cells, 85%; with NCI-H1993 cells, 81%; with SNU-5 cells, 99%; in the experiment with A549 cells [5], 90%; in the experiment on EBC-1 cells [6], 62%. The entries for the “Max % Kill” value in the experiment with Hs746T cells [7] and in the experiment on T47D cells [8] were 88% and 96%, respectively.

Consider `CNCCC(=O)N(C)C(C)C(=O)OC1CC(=O)N(C)c2cc(cc(OC)c2Cl)CC(C)=CC=CC(OC)C2(O)CC(OC(=O)N2)C(C)C2OC12C` (centres unmarked) [M24 (Maytansinoid B released payload)], for which the IC50 in the experiment with A549 cells [5], with EBC-1 cells [6], in the experiment on Hs746T cells [7] and in the experiment on T47D cells [8] was over 100 nM in each case. In addition, the “Max % Kill” value in the experiment with A549 cells [5] came out at 10%; in the experiment with EBC-1 cells [6], 32%; with Hs746T cells [7], 10%; in the experiment with T47D cells [8] it was 0%.

For `COc1cc2cc(c1Cl)N(C)C(=O)CC(OC(=O)C(C)N(C)C(=O)CCS)C1(C)OC1C(C)C1CC(O)(NC(=O)O1)C(OC)C=CC=C(C)C2` (centres unmarked) [DM1 (free drug)], the half-inhibitory concentration (IC50) in the experiment on A549 cells [9] is 2.56 nM; with HEK293 cells it was 0.15 nM; in the experiment on Hs746T cells [10] it was 1.46 nM; in the experiment with J.RT3 cells it was 0.07 nM; in the experiment on MDA-MB-231 cells, 1.53 nM; in the experiment with T47D cells [11], 1.33 nM. In the experiment with U87MG cells, this compound returned a half-inhibitory concentration (IC50) of 0.61 nM. The “Max % Kill” value with A549 cells [9] is reported as 97%; in the experiment with HEK293 cells, 95%; with Hs746T cells [10] it was 81%; in the experiment with J.RT3 cells, 100%; in the experiment on MDA-MB-231 cells, 89%; in the experiment with T47D cells [11] it was 91%. Moreover, the “Max % Kill” value in the experiment with U87MG cells is listed as 89%.

A word on the IC50: it is the concentration that gives 50% inhibition.
